≈ marks a conversion by molar mass, not a printed value. Read-outs that look alike come from different tables or passages of the source.
Columns and labels:
[1] = tested on: Salmonella typhimurium TA98; assay: Ames test, mutagenicity, TA98
[2] = tested on: Salmonella typhimurium TA100; assay: Ames test, mutagenicity, TA100
[3] = DPPH free radical scavenging (antioxidant) assay; settings: tested 100 to 0.048 μg/ml
Description: The DPPH free radical scavenging spectrophotometric method described by Mensor et al. and modified by Aderogba et al. was used to evaluate the quantitative antioxidant activity. Reactions were carried out in 96-well microtitre plates and each of the isolated compounds was tested at varying concentrations ranging from 100 to 0.048 μg/ml. Blank solutions were prepared with methanol only while the negative control was DPPH solution (20 μl plus 50 μl methanol). Test sample solution contained compounds serially diluted in methanol. Methanol served as a blank for the microplate reader and the decrease in absorbance was measured at 515 nm. Percentage antioxidant activity (AA%) values were calculated from the absorbance values using the formula: AA%=100−Abssample–Absblank×100/Abscontrol
(Abs sample is the absorbance of the sample, Abs blank is the absorbance of the blank and Abs control is the absorbance of the control). L-ascorbic acid (vitamin C) was used as a positive control (antioxidant agent). The EC50 value, defined as the concentration of the sample leading to 50% reduction of the initial DPPH concentration, was calculated from the separate linear regression of plots of the mean percentage of the antioxidant activity against concentration of the test extracts obtained from the three replicate assays. The results are expressed as EC50 values obtained from the regression plots.

MTT cytotoxicity assay = assay type: cell-based; settings: human; for viability at 2 days, 200 μg/ml: 200 μg/ml (highest concentration tested), read-out: percentage cell viability
Description: (§1) Briefly, the cells were maintained in minimal essential medium supplemented with 10% foetal calf serum and sodium pyruvate. Cell suspensions were prepared from confluent monolayer cultures and plated at a density of 5 × 10^4 cells/ml and a total of 200 μl of the cell suspension was plated in a 96-well culture plate. After incubation at 37 °C in a 5% CO2 incubator, the cells were treated with different concentrations of the isolated compounds ranging from 10 to 200 μg/ml and incubated for 2 days. Doxorubicin chloride was used as the positive control. The wells were washed with PBS and fresh medium (200 μl) was then added to the wells. MTT (Sigma) dissolved in PBS (30 μl) was added to each well and incubated for 4 h at 37 °C. The medium was removed and MTT formazan crystals were dissolved in 50 μl DMSO. The amount of MTT reduction was measured immediately by detecting the absorbance using a microplate reader (BioTek Synergy, Analytical and Diagnostic Products, South Africa) at a wavelength of 570 nm. The percentage of cell viability was calculated using the formula below: %cell viability=Mean Absorbance of sample/Mean Absorbance of control×100
(§2) The intensity of the MTT formazan produced by living metabolically active cells is directly proportional to the number of live cells present (Mosmann, [14]).

[4] = tested on: human hepatocellular carcinoma (C3A) cells; assay: MTT cytotoxicity assay; assay type: cell-based; settings: Homo sapiens; C3A cells, 200 μg/ml; read-out: inhibition of cell growth
Description: as §1, §2

[5] = parameters: method as in earlier work; settings: 100 μg/ml, cell-free system, ref 22 Manna et al.; cited from earlier work
[6] = tested on: Ehrlich ascites carcinoma (EAC) cell line; parameters: method as in Ramesh and colleagues (2012); settings: EAC cells, 100 μg/ml, ref Ramesh and colleagues (2012); cited from earlier work
[7] = tested on: Dalton's lymphoma (DLA) cell line; parameters: method as in Ramesh and colleagues (2012); settings: DLA cells, 100 μg/ml, ref Ramesh and colleagues (2012); cited from earlier work
[8] = tested on: Salmonella typhimurium TA102; assay: Ames test, antimutagenicity against MMC, TA102; settings: for antimutagenic activity: TA102, against MMC
Description: (§3) Briefly, 100 μl of bacterial stock were incubated in 20 ml of Oxoid Nutrient broth for 16 h at 37 °C on a rotary shaker. Of this overnight culture, 0.1 ml was added to 2.0 ml of top agar (containing histidine-biotin) together with 0.1 ml test solution and 0.5 ml phosphate buffer. […] To determine antimutagenicity, the test solution contained 50 μl test sample and 50 μl positive control). The top agar mixture was poured over the surface of a minimal agar plate and incubated for 48 h at 37 °C. After incubation the numbers of revertant colonies (mutants) in each plate were counted.
(§4) Where T is the number of revertants per plate in the presence of mutagen and the test solution and M is the number of revertants per plate in the positive control. All cultures were prepared in triplicate (except for the solvent control where five replicates were used). Absence of toxicity was confirmed when a background layer of bacterial growth, which should normally be present was observed.

[9] = tested on: Salmonella typhimurium TA98; assay: Ames test, antimutagenicity against 4-NQO, TA98; settings: for antimutagenic activity: TA98, against 4-NQO
Description: as §3, §4

[10] = tested on: Salmonella typhimurium TA100; assay: Ames test, antimutagenicity against 4-NQO, TA100; settings: for antimutagenic activity: TA100, against 4-NQO
Description: as §3, §4

[11] = C3A hepatocellular carcinoma cells, C3A cells, MTT, 2 days, 10 to 200 μg/ml, read-out: LC50

**Q.** Which “Mean number of revertant colonies per plate (±SD)” value (“Mean number … per plate (±SD)” for short) ([1]; TA98, 5 μg/ml) does the source give for `CC1(C)CC[C@]2(C(=O)O)CC[C@]3(C)C(=CC[C@@H]4[C@@]5(C)C[C@@H](O)[C@H](O)[C@@](C)(CO)[C@@H]5CC[C@]43C)[C@@H]2C1` [Arjunolic acid, arjunolic acid] here?
**A.** Its value is 26.67 ± 1.15.

**Q.** What about the “Mean number … per plate (±SD)” value ([1]; TA98, 50 μg/ml) of the same molecule?
**A.** The value was 28.33 ± 3.78.

**Q.** And the “Mean number … per plate (±SD)” value ([1]; TA98, 500 μg/ml)?
**A.** The value was 33.00 ± 2.65.

**Q.** And the “Mean number … per plate (±SD)” value ([2]; TA100, 5 μg/ml)?
**A.** The value was 107.33 ± 1.15.

**Q.** What about the “Mean number … per plate (±SD)” value ([2]; TA100, 50 μg/ml) of the same molecule?
**A.** The value was 104.33 ± 2.52.

**Q.** What about the “Mean number … per plate (±SD)” value ([2]; TA100, 500 μg/ml) of the same molecule?
**A.** Its value is 109.00 ± 8.72.

**Q.** And the “EC50, DPPH free radical scavenging” value [3]?
**A.** Its value is 6.25 ± 0.29 µg/mL (≈ 12.8 µM).

**Q.** What about the CC50 at 2 days (MTT cytotoxicity assay; [11]) of the same molecule?
**A.** The CC50 at 2 days was 106 ± 5.11 µg/mL.

**Q.** And the inhibition at 200 µg/mL [4]?
**A.** Its inhibition at 200 µg/mL is 66%.

**Q.** And the “DPPH free radical scavenging activity” value [5]?
**A.** The value was “up to 80%”.

**Q.** And the “inhibition of cell growth” value [6]?
**A.** Its value is “up to 70%”.

**Q.** What about the “inhibition of cell growth” value [7] of the same molecule?
**A.** The value was “up to 70%”.

**Q.** And the inhibition at 500 µg/mL ([8]; Salmonella enterica, TYPHIMURIUM, read-out: percentage antimutagenicity (inhibition of mutagenic effect of MMC), TA102, 500 μg/ml (highest concentration tested), MMC 1 μg/ml)?
**A.** The inhibition at 500 µg/mL was 44 ± 0.18%.

**Q.** What about the “percentage antimutagenicity (inhibition of mutagenic effect of MMC)” value ([8]; TA102, 500 μg/ml (highest concentration tested), MMC 1 μg/ml) of the same molecule?
**A.** The value was no more than 43.78 ± 0.18%.

**Q.** What about the “antimutagenic activity” value [8] of the same molecule?
**A.** Its value is “most active”.

**Q.** What about the inhibition at 500 µg/mL ([9]; Salmonella enterica, TYPHIMURIUM, read-out: percentage antimutagenicity (inhibition of mutagenic effect of 4-NQO), TA98, 500 μg/ml (highest concentration tested), 4-NQO 2 μg/ml) of the same molecule?
**A.** The inhibition at 500 µg/mL was 42 ± 9.6%.

**Q.** What about the “antimutagenic activity” value [9] of the same molecule?
**A.** The value was “most active”.

**Q.** What about the inhibition at 500 µg/mL ([10]; Salmonella enterica, TYPHIMURIUM, read-out: percentage antimutagenicity (inhibition of mutagenic effect of 4-NQO), TA100, 500 μg/ml (highest concentration tested), 4-NQO 1 μg/ml) of the same molecule?
**A.** The inhibition at 500 µg/mL was 36 ± 1.5%.

**Q.** What about the “percentage antimutagenicity (inhibition of mutagenic effect of 4-NQO)” value ([10]; TA100, 500 μg/ml (highest concentration tested), 4-NQO 1 μg/ml) of the same molecule?
**A.** The value was no more than 35.84 ± 1.45%.

**Q.** And the “antimutagenic activity” value [10]?
**A.** The value was “most active”.

**Q.** Which “EC50, DPPH free radical scavenging” value [3] does the source give for `O=C1O[C@H]([C@@H](O)CO)C(O)=C1O` [Ascorbic acid, L-ascorbic acid, reference compound] here?
**A.** The value was 0.51 ± 0.08 µg/mL (≈ 2.9 µM).

**Q.** With `COc1cccc2c1C(=O)c1c(O)c3c(c(O)c1C2=O)C[C@@](O)(C(=O)CO)C[C@@H]3O[C@H]1C[C@H](N)[C@H](O)[C@H](C)O1` [Doxorubicin, Doxorubicin chloride, reference compound] as the molecule, how does the CC50 at 2 days (MTT cytotoxicity assay) read?
**A.** Its CC50 at 2 days is 640 ± 32 nM.

**Q.** Which “Mean number … per plate (±SD)” value ([1]; TA98, 5 μg/ml) does the source give for `CCCCCCCCCCCCCCCCCCCC(=O)O` [Eicosanoic acid, eicosanoic acid] here?
**A.** Its value is 28.67 ± 5.51.

**Q.** And the “Mean number … per plate (±SD)” value ([1]; TA98, 50 μg/ml)?
**A.** Its value is 29.33 ± 4.04.

**Q.** What about the “Mean number … per plate (±SD)” value ([1]; TA98, 500 μg/ml) of the same molecule?
**A.** Its value is 27.77 ± 1.53.

**Q.** And the “Mean number … per plate (±SD)” value ([2]; TA100, 5 μg/ml)?
**A.** Its value is 112.33 ± 2.89.

**Q.** And the “Mean number … per plate (±SD)” value ([2]; TA100, 50 μg/ml)?
**A.** Its value is 102.67 ± 4.73.

**Q.** What about the “Mean number … per plate (±SD)” value ([2]; TA100, 500 μg/ml) of the same molecule?
**A.** The value was 108.67 ± 5.03.

**Q.** What about the “EC50, DPPH free radical scavenging” value [3] of the same molecule?
**A.** The value was greater than 100 µg/mL.

**Q.** And the CC50 at 2 days (MTT cytotoxicity assay)?
**A.** The CC50 at 2 days was greater than 200 µg/mL.

**Q.** What about the viability at 2 days, 200 μg/ml (MTT cytotoxicity assay; C3A cells) of the same molecule?
**A.** Its viability at 2 days, 200 μg/ml is 50.1 ± 6.21%.

**Q.** For `CCCCCCCCCCCCCCCCCCCCCCCCO` [n-Tetracosanol, n-tetracosanol], which “Mean number … per plate (±SD)” value ([1]; TA98, 5 μg/ml) is on record?
**A.** Its value is 23.67 ± 4.51.

**Q.** And the “Mean number … per plate (±SD)” value ([1]; TA98, 50 μg/ml)?
**A.** Its value is 35.67 ± 9.71.

**Q.** And the “Mean number … per plate (±SD)” value ([1]; TA98, 500 μg/ml)?
**A.** The value was 30.00 ± 7.81.

**Q.** What about the “Mean number … per plate (±SD)” value ([2]; TA100, 5 μg/ml) of the same molecule?
**A.** Its value is 127.00 ± 7.21.

**Q.** And the “Mean number … per plate (±SD)” value ([2]; TA100, 50 μg/ml)?
**A.** The value was 121.33 ± 2.52.

**Q.** What about the “Mean number … per plate (±SD)” value ([2]; TA100, 500 μg/ml) of the same molecule?
**A.** The value was 125.00 ± 8.18.

**Q.** What about the “EC50, DPPH free radical scavenging” value [3] of the same molecule?
**A.** The value was greater than 100 µg/mL.

**Q.** And the viability at 2 days, 200 μg/ml (MTT cytotoxicity assay; C3A hepatocellular carcinoma cells, C3A cells)?
**A.** Its viability at 2 days, 200 μg/ml is 59.7 ± 7.23%.

**Q.** What about the CC50 at 2 days (MTT cytotoxicity assay; [11]) of the same molecule?
**A.** Its CC50 at 2 days is greater than 200 µg/mL.

**Q.** And the “antimutagenic activity” value [8]?
**A.** Its value is “least active compound”.

**Q.** What about the “antimutagenic activity” value [9] of the same molecule?
**A.** The value was “least active compound”.

**Q.** And the “antimutagenic activity” value [10]?
**A.** The value was “least active compound”.
